Measured values published in US20250320213A1, “Nitrogen-Containing Heterocyclic Compounds” (Pfizer Inc., priority 2024, published 2025).
Where two headings read alike, the source gives them in different places.

Legend:
[1] = system: CCL17 secretion in peripheral human whole blood; assay: Human Whole Blood (HWB) CCL17 TR-FRET Assay (IL-13 stimulated CCL17 secretion); type: cell-based
In short: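 TR-FRET sandwich immunoassay (665/615 nm ratio) read CCL17 in serum from heparinized whole blood after 16 h RT detection. Blood was exposed to compound for 2 h at 37 °C, then to 10 ng/mL IL-13 (final) for 48 h. IC50 from 11-point, 3-fold titrations in duplicate.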

STAT6 = biological target: T1, STAT6 (Homo sapiens, UniProt P42226); assay: STAT6 Reporter Luciferase Assay (IL-13 stimulated HaCaT keratinocyte NanoLuc reporter cells); type: cell-based; conditions: read-out: Reporter EC50
T1 construct: stably transfected HaCaT keratinocyte cell line, which expresses NanoLuc luciferase reporter gene under the transcriptional control of the STAT6 responsive promoter; endogenous in cells; host or cells: HaCaT keratinocyte reporter cell line (stably transfected with a NanoLuc reporter)
T1 sequence (P42226 1-847): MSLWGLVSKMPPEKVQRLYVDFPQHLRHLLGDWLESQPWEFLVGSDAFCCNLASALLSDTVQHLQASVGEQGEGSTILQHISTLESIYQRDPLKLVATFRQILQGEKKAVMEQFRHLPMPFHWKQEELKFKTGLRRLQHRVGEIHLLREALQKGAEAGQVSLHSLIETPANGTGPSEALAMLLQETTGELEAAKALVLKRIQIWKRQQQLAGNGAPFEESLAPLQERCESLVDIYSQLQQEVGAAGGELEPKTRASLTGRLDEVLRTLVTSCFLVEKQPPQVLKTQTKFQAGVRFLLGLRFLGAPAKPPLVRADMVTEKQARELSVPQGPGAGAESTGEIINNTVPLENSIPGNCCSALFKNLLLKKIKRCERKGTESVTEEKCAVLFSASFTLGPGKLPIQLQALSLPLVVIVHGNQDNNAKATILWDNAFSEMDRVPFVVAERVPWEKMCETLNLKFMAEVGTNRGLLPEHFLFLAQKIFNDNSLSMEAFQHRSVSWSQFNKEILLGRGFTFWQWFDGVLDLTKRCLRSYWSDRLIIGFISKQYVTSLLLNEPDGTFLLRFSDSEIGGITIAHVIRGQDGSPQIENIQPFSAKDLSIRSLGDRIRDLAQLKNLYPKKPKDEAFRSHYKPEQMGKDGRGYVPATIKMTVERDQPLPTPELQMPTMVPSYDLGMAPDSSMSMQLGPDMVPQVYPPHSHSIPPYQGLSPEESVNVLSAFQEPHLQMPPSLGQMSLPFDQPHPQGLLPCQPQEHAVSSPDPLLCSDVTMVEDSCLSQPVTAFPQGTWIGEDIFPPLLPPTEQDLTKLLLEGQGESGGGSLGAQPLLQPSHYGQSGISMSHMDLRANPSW
In short: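 Luminescence from a NanoLuc reporter driven by the STAT6-responsive IL-13Ra2 promoter in HaCaT keratinocytes serves as the read-out. Compounds are given 2 h before a 4 h stimulation with 0.12 nM IL-13.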

[2] = Homo sapiens, 48 h, inhibition of CCL17 secretion in human whole blood, 10 ng/mL IL13, 48 hours
[3] = STAT6 NanoLuc luciferase reporter, IL-13 stimulated HaCaT keratinocyte cells
[4] = Homo sapiens, 48 h, human whole blood, IL-13 stimulated
[5] = IL-13 stimulated HaCaT STAT6 NanoLuc reporter cells
[6] = Homo sapiens, 48 h, human whole blood, 10 ng/mL IL13, 48 hours
[7] = human whole blood, IL-13 stimulated, 48 hours

| Structure (SMILES) | IC50 [1, 4] [nM] | EC50 (STAT6; [5]) [nM] | further results |
| --- | --- | --- | --- |
| CC(C)n1nc(C(=O)NCc2ccc(NC(=O)N(C)C)cc2)c2c1CCN(c1ccc(N3C(=O)CCC34CC4)cn1)C2 [Example 73, N-(4-(3,3-dimethylureido)benzyl)-1-isopropyl-5-(5-(5-oxo-4-azaspiro[2.4]heptan-4-yl)pyridin-2-yl)-4,5,6,7-tetrahydro-1H-pyrazolo[4,3-c]pyridine-3-carboxamide] |  |  | IC50 [1, 2]: 9350 nM; EC50 (STAT6; [3]): 121 nM |
| CC(C)n1nc(C(=O)NCc2ccc(NC(=O)N3CCN(C)CC3)cc2)c2c1[C@@H](C)CN(c1ccc(C(=O)N(C)C)cn1)C2 [Example 470, (S)-5-(5-(dimethylcarbamoyl)pyridin-2-yl)-1-isopropyl-7-methyl-N-(4-(4-methylpiperazine-1-carboxamido)benzyl)-4,5,6,7-tetrahydro-1H-pyrazolo[4,3-c]pyridine-3-carboxamide] | 5 | 1 |  |
| CNC(=O)c1ccc(CNC(=O)c2nn(C(C)C)c3c2CN(c2ncc(C(=O)N(C)C)cn2)[C@@H](C)C3)cc1 [Example 534, (S)-5-(5-(dimethylcarbamoyl)pyrimidin-2-yl)-1-isopropyl-6-methyl-N-(4-(methylcarbamoyl)benzyl)-4,5,6,7-tetrahydro-1H-pyrazolo[4,3-c]pyridine-3-carboxamide] |  | 33 | IC50 [1, 6]: 155 nM |
| CC(C)n1nc(C(=O)NCc2ccc(NC(=O)N(C)C)cc2)c2c1CCN(c1ccc(N3CCOC3=O)cn1)C2 [Example 107, N-(4-(3,3-dimethylureido)benzyl)-1-isopropyl-5-(5-(2-oxooxazolidin-3-yl)pyridin-2-yl)-4,5,6,7-tetrahydro-1H-pyrazolo[4,3-c]pyridine-3-carboxamide] |  |  | IC50 [1, 2]: 219 nM; EC50 (STAT6; [3]): 13 nM |
| CCC1CN(c2ccc(C(=O)N(C)C)cn2)Cc2c(C(=O)NCc3ccc(NC(=O)N(C)C)cc3)n[nH]c21 (racemic) [Example 57, rac-(R)-5-(5-(dimethylcarbamoyl)pyridin-2-yl)-N-(4-(3,3-dimethylureido)benzyl)-7-ethyl-4,5,6,7-tetrahydro-1H-pyrazolo[4,3-c]pyridine-3-carboxamide] |  |  | IC50 [1, 2]: 182 nM; EC50 (STAT6; [3]): 98 nM |
| CC(C)n1nc(C(=O)NCc2ccc(NC(=O)N(C)C)cc2)c2c1CCN(c1ccc(C3CCCCO3)cn1)C2 (single isomer, unassigned) [Example 393, rel-(R or S)-N-(4-(3,3-dimethylureido)benzyl)-1-isopropyl-5-(5-(tetrahydro-2H-pyran-2-yl)pyridin-2-yl)-4,5,6,7-tetrahydro-1H-pyrazolo[4,3-c]pyridine-3-carboxamide] | > 30000 | > 8750 |  |
| CCn1nc(C(=O)NCc2ccc(NC(=O)N(C)C)cc2)c2c1CCN(c1ncc(C(=O)N(C)C)cn1)[C@@H]2C (single isomer, unassigned) [Example 511] | 29 | 6 |  |
| Cc1ccn(-c2ccc(N3CCc4c(c(C(=O)NCc5ccc(NC(=O)N(C)C)cc5)nn4C(C)C)C3)nc2)n1 [Example 47, N-(4-(3,3-dimethylureido)benzyl)-1-isopropyl-5-(5-(3-methyl-1H-pyrazol-1-yl)pyridin-2-yl)-4,5,6,7-tetrahydro-1H-pyrazolo[4,3-c]pyridine-3-carboxamide] |  |  | IC50 [1, 2]: > 30000 nM; EC50 (STAT6; [3]): 1180 nM |
| CC1c2c(C(=O)NCc3ccc(NC(=O)N(C)C)cc3)nn(C(C)C)c2[C@@H](C)CN1c1ccc(C(=O)N(C)C)cn1 (mixture of isomers) [Example 524, (4RS,7S)-5-(5-(Dimethylcarbamoyl)pyridin-2-yl)-N-(4-(3,3-dimethylureido)benzyl)-1-isopropyl-4,7-dimethyl-4,5,6,7-tetrahydro-1H-pyrazolo[4,3-c]pyridine-3-carboxamide] | 6 | 0.1 |  |
| CCn1nc(C(=O)NCc2ccc(NC(=O)N(C)C)cc2)c2c1[C@@H](C)[C@H](C)N(c1ccc(C(=O)N(C)C)cn1)C2 (single isomer, unassigned) [Example 352] | 3 | 0.3 |  |
| CC(CO)n1nc(C(=O)NCc2ccc(NC(=O)N(C)C)cc2)c2c1CCN(c1ccc(C(=O)N(C)C)cn1)C2 (single isomer, unassigned) [Example 359, rel-(R or S)-5-(5-(dimethylcarbamoyl)pyridin-2-yl)-N-(4-(3,3-dimethylureido)benzyl)-1-(1-hydroxypropan-2-yl)-4,5,6,7-tetrahydro-1H-pyrazolo[4,3-c]pyridine-3-carboxamide] |  | 358 | IC50 [1, 7]: 869 nM |
| CC(C)n1nc(C(=O)NCc2ccc(NC(=O)C3(F)CCN(C)CC3)cc2)c2c1[C@@H](C)CN(c1ccc(C(=O)N(C)C)cc1)C2 [Example 586, (S)-5-(4-(dimethylcarbamoyl)phenyl)-N-(4-(4-fluoro-1-methylpiperidine-4-carboxamido)benzyl)-1-isopropyl-7-methyl-4,5,6,7-tetrahydro-1H-pyrazolo[4,3-c]pyridine-3-carboxamide] |  | 6 | IC50 [1, 6]: 58 nM |
| CCn1nc(C(=O)NCc2ccc(NC(=O)N(C)C)cc2)c2c1CCN(c1ccc(C(=O)N(C)C)cn1)[C@@H]2C [Example 513, (R)-5-(5-(dimethylcarbamoyl)pyridin-2-yl)-N-(4-(3,3-dimethylureido)benzyl)-1-ethyl-4-methyl-4,5,6,7-tetrahydro-1H-pyrazolo[4,3-c]pyridine-3-carboxamide] | 18 | 3 |  |
| CC(C)n1nc(C(=O)NCc2ccc(NC(=O)N(C)C)cc2)c2c1C(C(F)(F)F)CN(c1ccc(C(=O)N(C)C)cn1)C2 (single isomer, unassigned) [Example 548, rel-(R or S)-5-(5-(Dimethylcarbamoyl)pyridin-2-yl)-N-(4-(3,3-dimethylureido)benzyl)-1-isopropyl-7-(trifluoromethyl)-4,5,6,7-tetrahydro-1H-pyrazolo[4,3-c]pyridine-3-carboxamide] |  | 15 | IC50 ([1]; human whole blood, 10 ng/mL IL13, 48 hours): 199 nM |
| CC(C)n1nc(C(=O)NCc2ccc(NC(=O)N(C)C)cc2)c2c1CCN(c1ccc(CC(N)=O)cn1)C2 [Example 430, 5-(5-(2-amino-2-oxoethyl)pyridin-2-yl)-N-(4-(3,3-dimethylureido)benzyl)-1-isopropyl-4,5,6,7-tetrahydro-1H-pyrazolo[4,3-c]pyridine-3-carboxamide] | 1410 | 333 |  |
| CNC(=O)c1ccc(CNC(=O)c2nn(C(C)C)c3c2CN(c2ncc(N4CCCC4=O)cn2)C[C@@H]3C)cc1 [Example 490, (S)-1-isopropyl-7-methyl-N-(4-(methylcarbamoyl)benzyl)-5-(5-(2-oxopyrrolidin-1-yl)pyrimidin-2-yl)-4,5,6,7-tetrahydro-1H-pyrazolo[4,3-c]pyridine-3-carboxamide] | 50 | 13 |  |
| CNC(=O)Nc1ccc(CNC(=O)c2nn(C(C)C)c3c2CN(c2ccc(N4CCCC4=O)cn2)C[C@@H]3C)cc1 [Example 480, (S)-1-isopropyl-7-methyl-N-(4-(3-methylureido)benzyl)-5-(5-(2-oxopyrrolidin-1-yl)pyridin-2-yl)-4,5,6,7-tetrahydro-1H-pyrazolo[4,3-c]pyridine-3-carboxamide] | 3 | 0.3 |  |
| COCCC1(N)CCN(C(=O)Nc2ccc(CNC(=O)c3nn(C(C)C)c4c3CN(c3ccc(C(=O)N(C)C)cc3)C[C@@H]4C)cc2)CC1 [Example 708, (S)-N-(4-(4-amino-4-(2-methoxyethyl)piperidine-1-carboxamido)benzyl)-5-(4-(dimethylcarbamoyl)phenyl)-1-isopropyl-7-methyl-4,5,6,7-tetrahydro-1H-pyrazolo[4,3-c]pyridine-3-carboxamide] |  | 1 | IC50 ([1]; Homo sapiens, 48 h, human whole blood, IL-13 10 ng/mL): 8 nM |
| CC(C)n1nc(C(=O)NCc2ccc(NC(=O)N(C)C)cc2)c2c1C(O)CN(c1ccc(C(=O)N(C)C)cn1)C2 (single isomer, unassigned) [Example 475, rel-(R or S)-5-(5-(dimethylcarbamoyl)pyridin-2-yl)-N-(4-(3,3-dimethylureido)benzyl)-7-hydroxy-1-isopropyl-4,5,6,7-tetrahydro-1H-pyrazolo[4,3-c]pyridine-3-carboxamide] |  | 72 | IC50 [1, 7]: 215 nM |
